Our source for the IC50 values is patent publication US9340577B2, “HLA binding motifs and peptides and their uses” (priority 1992, dated 2016).

What all share (assay): biochemical
The target in one test is DRB1*1201 (Homo sapiens, UniProt P01903+P01911, A100R/A169T/D57E/D86V/F55L/H45Y/K41T/L162R/M171V/P40S/Q125H/Q178H/Q39Y/Q99D/R42G/S66L/T262R/V114A/V67L/W38E/Y59H/Y61H/Y89S). It counts as binding.
A further test concerns the target DRB1*1101 (Homo sapiens, UniProt P01903+P01911, A100R/A169T/A87E/I96F/K41T/L162R/M171V/P40S/Q125H/Q178H/Q39Y/Q99D/R42S/S66Y/T262R/V115G/W38E). As to conditions: Binding affinity DRB1 *1101.
Another test addresses DRB5*0101 (Homo sapiens, UniProt P01903+Q30154). Conditions: Binding affinity DRB5 *0101.
The next test has as its target DRB1*0802 (Homo sapiens, UniProt P01903+P01911, A100R/A103L/A169T/F76Y/H45Y/I96F/K41T/L162R/M171V/P40S/Q125H/Q178H/Q39Y/Q99D/R218S/R42G/S66Y/V115G/W38E). Type of test: binding.

pIC50: −log10 of the molar value. No end group written: not given here.

Chain of DRB1*1101 (P01903 26-254 limits assumed, other chains not shown): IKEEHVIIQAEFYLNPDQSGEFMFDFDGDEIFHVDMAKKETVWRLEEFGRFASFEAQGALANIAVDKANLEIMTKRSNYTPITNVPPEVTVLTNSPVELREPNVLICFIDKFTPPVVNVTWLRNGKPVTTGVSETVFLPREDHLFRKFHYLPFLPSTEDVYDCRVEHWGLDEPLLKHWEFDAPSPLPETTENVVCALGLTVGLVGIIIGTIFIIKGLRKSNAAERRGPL

For orientation: pIC50 means the negative decadic logarithm of the IC50, by convention in mol/L. A lower pIC50 goes with a large IC50. For `CC[C@H](C)[C@H](NC(=O)[C@H](CO)NC(=O)[C@H](CC(N)=O)NC(=O)[C@H](C)NC(=O)[C@H](CC(C)C)NC(=O)[C@H](CCC(=O)O)NC(=O)[C@H](Cc1ccccc1)NC(=O)[C@@H](NC(=O)[C@H](CCSC)NC(=O)CN)C(C)C)C(=O)N[C@H](C(=O)N[C@@H](CC(C)C)C(=O)N1CCC[C@H]1C(=O)N[C@@H](Cc1ccccc1)C(=O)N[C@@H](CC(=O)O)C(=O)O)C(C)C` [Peptide 68.0123], the pIC50 against DRB1*1201 was 7.01; at DRB1*1101, below 4.70.
Consider `CSCC[C@H](NC(=O)[C@H](CCC(N)=O)NC(=O)[C@H](CC(C)C)NC(=O)CNC(=O)[C@H](CO)NC(=O)[C@@H](NC(=O)[C@@H](NC(=O)[C@@H](NC(=O)[C@@H](N)CC(=O)O)[C@@H](C)O)[C@@H](C)O)C(C)C)C(=O)N[C@@H](C)C(=O)N[C@@H](CC(C)C)C(=O)N[C@@H](CC(=O)O)C(=O)N[C@H](C(=O)N[C@@H](Cc1ccc(O)cc1)C(=O)N[C@@H](CC(N)=O)C(=O)O)C(C)C` [Peptide 68.0051], for which the negative logarithm of the IC50 (pIC50) on DRB1*1201 is 6.15; on DRB5*0101, below 4.70; on DRB1*0802 it was below 4.70; at DRB1*1101 it was below 4.70.
Turning to `CC[C@H](C)[C@H](NC(=O)[C@@H](N)CC(C)C)C(=O)N[C@@H](CCSC)C(=O)N[C@@H](Cc1ccc(O)cc1)C(=O)N[C@@H](CO)C(=O)N[C@@H](C)C(=O)N[C@@H](Cc1c[nH]cn1)C(=O)N[C@@H](CC(=O)O)C(=O)N[C@H](C(=O)N[C@H](C(=O)N[C@H](C(=O)N[C@@H](CO)C(=O)NCC(=O)N[C@@H](CC(C)C)C(=O)N[C@@H](CCC(N)=O)C(=O)O)C(C)C)[C@@H](C)O)[C@@H](C)O` [Peptide 68.0050], the pIC50 at DRB1*1201, on DRB5*0101, on DRB1*0802 and on DRB1*1101 was below 4.70 in each case.
With `CSCC[C@H](NC(=O)[C@H](CC(C)C)NC(=O)[C@H](CC(=O)O)NC(=O)[C@@H](N)Cc1c[nH]cn1)C(=O)N[C@@H](CC(C)C)C(=O)N[C@@H](CC(C)C)C(=O)N[C@@H](CCCNC(=N)N)C(=O)N[C@@H](CC(C)C)C(=O)N[C@@H](CO)C(=O)N[C@@H](CCC(=O)O)C(=O)N1CCC[C@H]1C(=O)N[C@@H](C)C(=O)N[C@@H](CCC(=O)O)C(=O)N[C@@H](CC(C)C)C(=O)N[C@H](C(=O)O)[C@@H](C)O` [Peptide 68.0073], at DRB1*1201, the pIC50 is 6.28.
The compound `CSCC[C@H](NC(=O)[C@H](CC(C)C)NC(=O)[C@@H]1CCCN1C(=O)[C@@H](NC(=O)[C@@H](N)CS)[C@@H](C)O)C(=O)N[C@@H](Cc1ccc(O)cc1)C(=O)N[C@@H](CO)C(=O)N[C@@H](CC(C)C)C(=O)N[C@H](C(=O)N[C@@H](Cc1c[nH]cn1)C(=O)N[C@@H](CC(N)=O)C(=O)N[C@@H](CC(C)C)C(=O)N[C@H](C(=O)N[C@@H](CCCCN)C(=O)N[C@@H](CCC(=O)O)C(=O)O)[C@@H](C)O)C(C)C` [Peptide 68.0113] had a pIC50 against DRB1*1201 of 5.76.
Consider `CC[C@H](C)[C@H](NC(=O)[C@H](CS)NC(=O)[C@H](Cc1c[nH]cn1)NC(=O)[C@H](C)NC(=O)[C@H](C)NC(=O)[C@@H](NC(=O)[C@H](CC(C)C)NC(=O)[C@@H](NC(=O)[C@H](Cc1c[nH]c2ccccc12)NC(=O)[C@H](CCC(N)=O)NC(=O)[C@@H]1CCCN1C(=O)[C@@H](N)Cc1c[nH]cn1)C(C)C)[C@@H](C)O)C(=O)N[C@@H](CCCNC(=N)N)C(=O)N[C@@H](CC(N)=O)C(=O)N[C@@H](CCCCN)C(=O)O` [Peptide 68.0064], for which the pIC50 against DRB1*1201 is 5.24.
For GAAVVHEIVRSFGTL [Peptide 68.0173], the pIC50 at DRB1*1201 was 6.29.
The same measure, in the same setting: the same measure for NSRLLQERGVAYINA [Peptide 68.0176]: 6.21; for `CSCC[C@H](NC(=O)[C@H](CC(C)C)NC(=O)[C@H](CCC(N)=O)NC(=O)[C@H](CC(=O)O)NC(=O)[C@H](CC(N)=O)NC(=O)[C@H](CCSC)NC(=O)[C@H](CCSC)NC(=O)[C@H](CCCNC(=N)N)NC(=O)[C@H](CC(C)C)NC(=O)[C@@H](N)C(C)C)C(=O)N[C@@H](Cc1ccccc1)C(=O)N[C@@H](CC(C)C)C(=O)N[C@@H](CCC(=O)O)C(=O)N[C@@H](CCCNC(=N)N)C(=O)N[C@@H](C)C(=O)O` [Peptide 68.0130]: 7.01; for HPQWVLTAAHCLKKN [Peptide 68.0003]: 4.94.
On DRB1*1201, `CC[C@H](C)[C@H](NC(=O)[C@H](CCCCN)NC(=O)[C@H](C)NC(=O)[C@@H]1CCCN1C(=O)[C@H](CCC(=O)O)NC(=O)[C@H](CO)NC(=O)[C@H](CC(C)C)NC(=O)[C@H](CCCNC(=N)N)NC(=O)[C@H](CC(C)C)NC(=O)[C@H](CC(C)C)NC(=O)[C@H](CCSC)NC(=O)[C@H](CC(C)C)NC(=O)[C@H](CC(=O)O)NC(=O)[C@@H](N)Cc1c[nH]cn1)C(=O)N[C@H](C(=O)O)[C@@H](C)O` [Peptide 68.0011] had a pIC50 of 7.08.
At DRB1*1201, `CC[C@H](C)[C@H](NC(=O)[C@H](Cc1ccccc1)NC(=O)[C@H](C)NC(=O)[C@H](CCCNC(=N)N)NC(=O)[C@H](CCC(=O)O)NC(=O)[C@H](CC(C)C)NC(=O)[C@H](Cc1ccccc1)NC(=O)[C@H](CCSC)NC(=O)[C@H](CC(C)C)NC(=O)[C@H](CCC(N)=O)NC(=O)[C@@H](N)CC(=O)O)C(=O)N[C@@H](CC(=O)O)C(=O)N1CCC[C@H]1C(=O)N[C@@H](CC(C)C)C(=O)NCC(=O)O` [Peptide 68.0181] had a pIC50 of 6.84.
Still for that read-out and setting: the same measure for `CC[C@H](C)[C@H](N)C(=O)N[C@@H](CC(C)C)C(=O)N[C@@H](CC(C)C)C(=O)N[C@@H](Cc1c[nH]c2ccccc12)C(=O)N[C@@H](CCC(N)=O)C(=O)N1CCC[C@H]1C(=O)N[C@H](C(=O)N1CCC[C@H]1C(=O)N[C@H](C(=O)N[C@@H](Cc1c[nH]cn1)C(=O)N[C@H](C(=O)N[C@H](C(=O)N1CCC[C@H]1C(=O)N[C@@H](CC(C)C)C(=O)N[C@@H](CO)C(=O)O)C(C)C)[C@@H](C)O)C(C)C)[C@@H](C)CC` [68,0038]: 5.14.
Regarding `CC(C)C[C@H](NC(=O)[C@H](CCC(=O)O)NC(=O)[C@H](CCCCN)NC(=O)[C@H](C)N)C(=O)N[C@@H](CCCCN)C(=O)N[C@@H](Cc1ccccc1)C(=O)N[C@H](C(=O)N[C@H](C(=O)N[C@@H](CC(C)C)C(=O)N[C@H](C(=O)N[C@@H](Cc1ccccc1)C(=O)N[C@@H](CCCNC(=N)N)C(=O)N[C@@H](Cc1c[nH]cn1)C(=O)NCC(=O)N[C@@H](CC(=O)O)C(=O)O)C(C)C)[C@@H](C)O)C(C)C` [68,0025], the pIC50 against DRB1*1201 is 6.16.
The same measure, in the same setting: the value for `CC[C@H](C)[C@H](NC(=O)[C@H](CCC(N)=O)NC(=O)[C@@H](NC(=O)[C@H](Cc1ccccc1)NC(=O)[C@H](CC(N)=O)NC(=O)[C@H](Cc1ccc(O)cc1)NC(=O)[C@H](CC(C)C)NC(=O)[C@H](Cc1ccccc1)NC(=O)[C@@H](N)CCCCN)[C@@H](C)O)C(=O)N1CCC[C@H]1C(=O)N[C@@H](Cc1c[nH]cn1)C(=O)N[C@@H](CC(C)C)C(=O)N[C@@H](C)C(=O)NCC(=O)N[C@H](C(=O)O)[C@@H](C)O` [Peptide 68.0087] was 5.91.
For `CC[C@H](C)[C@H](NC(=O)[C@H](CO)NC(=O)[C@H](CC(N)=O)NC(=O)[C@H](C)NC(=O)[C@H](CC(C)C)NC(=O)[C@H](CCC(=O)O)NC(=O)[C@H](Cc1ccccc1)NC(=O)[C@@H](N)C(C)C)C(=O)N[C@H](C(=O)N[C@@H](CC(C)C)C(=O)N1CCC[C@H]1C(=O)N[C@@H](Cc1ccccc1)C(=O)N[C@@H](CC(=O)O)C(=O)N[C@@H](CS)C(=O)N[C@@H](CCCNC(=N)N)C(=O)O)C(C)C` [Peptide 68.0124], the pIC50 on DRB1*1201 is 6.28; at DRB1*0802 it was below 4.70.
Regarding LRMMNDQLMFLERAF [Peptide 68.0131], on DRB1*1201, the pIC50 was 6.55.
